Results from article PMC9508196 (Scientific Reports, 2022).
Non-standard residues stand in square brackets, D forms with d. Residues, ends and D or L forms follow the SMILES beside them. No end group written: not given here.

Experiments:
[1] = tested on: A. baumannii A-8.2–1 (XDR); assay: microbe, parasite or virus in culture; assay type: cell-based, Acinetobacter baumannii; conditions: clinical isolate A-8.2–1 (XDR), blood
Procedure, shortened: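 Inhibitory concentrations were determined in Müeller-Hinton broth following a modified CLSI microdilution protocol with an inoculum of 2–8 × 10^5 CFU/mL; assays ran in triplicate.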

[2] = tested on: A. baumannii D-10.1–2 (MDR); assay type: cell-based, Acinetobacter baumannii; conditions: clinical isolate D-10.1–2 (MDR), urine
From the text: (§1) Ten strains of both Gram-positive and -negative bacteria, including Staphylococcus aureus ATCC 25,923, S. epidermidis ATCC 12,228, Bacillus cereus ATCC 11,778, Listeria monocytogenes 10403S, Salmonella typhimurium ATCC 13,311, Pseudomonas aeruginosa ATCC 27,853, Shigella sonnei ATCC 11,060, A. baumannii ATCC 19,606, Escherichia coli ATCC 25,922 and E. coli O157:H7, were used in this study. Eight clinical isolates of multidrug-resistant (MDR) and extensively drug-resistant (XDR) A. baumannii, isolated from human (blood, sputum, respiratory sample, sterile site sample and urine), were kindly provided by Asst. Prof. Dr. Sakawrat Kanthawong (Faculty of Medicine, Khon Kaen University, Thailand) (Table S1). All bacterial strains, excluding L. monocytogenes 10403S and E. coli, were cultured in tryptic soy broth (TSB). L. monocytogenes was grown in TSB supplemented with 0.6% yeast extract (TSB-YE), and E. coli was cultured in Luria broth (LB). All of bacteria were cultured at 37 °C with continuous shaking at 220 rpm.
(§2) Minimum inhibitory concentration (MIC) of peptides and antibiotics was assessed by a modified version of the broth microdilution method from the Clinical and Laboratory Standards Institute (CLSI) as previously described. In brief, mid-log phase growths of microbial strains were cultured in Müeller-Hinton broth (MHB) with an initial inoculum of 2–8 × 10^5 CFU/mL. Bacteria suspensions were incubated in sterile 96-well plates with test agents at desired concentrations. […] Minimum bactericidal concentration (MBC) determination was performed using a modified version of the colony count assay. In brief, fifty µl of all non-turbid wells from MIC experiments were spread on agar plates. The MBC value was defined as the lowest concentration of peptides with no colony growth on the plate. All assays were performed in triplicate.

[3] = tested on: A. baumannii D-10.1–1 (MDR); assay type: cell-based, Acinetobacter baumannii; conditions: clinical isolate D-10.1–1 (MDR), urine
From the text: as §1, §2

[4] = tested on: mouse fibroblast (L929) cells; assay: In vitro cytotoxicity assay (MTT); assay type: cell-based; conditions: 24 h
Procedure: The colorimetric 3-(4,5 dimethylthiazol-2-yl)-2,5-diphenyltetrazolium bromide (MTT; Invitrogen) dye reduction assay was used to determine the cytotoxicity of peptides on mouse fibroblast (L929) cells (NCTC clone 929) according to a modified MTT assay. L929 cells were cultured in Dulbecco’s Modified Eagle Medium (DMEM; Gibco) containing 10% fetal bovine serum (FBS; Gibco) and 100 U/ml penicillin–streptomycin in a fully humidified atmosphere of 95% air and 5% CO2 at 37 °C. The cells (10^5 cells/well) were seeded on 96-well plates and incubated with serially diluted peptide (0.98 to 250 μg/ml) for 24 h. At the end of incubation period, MTT solution (100 µl, 0.4 mg/ml) was added to each well and incubated for 4 h. The supernatants were removed and replaced by 100 µl of DMSO to dissolve the purple formazan crystals. Absorbance was measured using a MultiskanTM FC microplate reader at a wavelength of 570 nm. Cells without peptides served as negative controls. Cell viability (percentage) was calculated using the following equation: %Cell viability=OD570of treated sample-ODBlank/OD570of control-ODBlank×100%

A. baumannii ATCC 19,606 [5] = assay: Peptide stability in human plasma (MIC/MBC after pre-incubation); assay type: cell-based, Acinetobacter baumannii; conditions: peptide mixed with pure human plasma, 1 h, 37 °C, then two-fold diluted in MHB, bacteria 24 h
Procedure: as §2
(§3) The MIC and MBC assays were performed after peptide was exposed to various conditions, including proteolytic enzymes, serum salts and human plasma. […] To determine peptide sensitivity to physiological salts, approximately 5 × 10^5 CFU/ml of A. baumannii ATCC 19,606 was mixed with the MHB containing different physiological salts at final concentration as follows: 150 mM NaCl, 4.5 mM KCl, 1 mM MgCl2, 6 µM NH4Cl, 8 µM ZnCl2, 4 µM FeCl3 and […]. After treatment, the MIC was evaluated as described in 2.4. To test the stability of peptides in human plasma, peptide was mixed with pure human plasma, and the mixture was incubated for 1 h at 37 °C. Then, the mixture was two-fold serially diluted with sterile MHB. The peptides at final concentrations of 0.98 to 250 µg/ml were incubated with an equal volume of bacterial suspension at 37 °C for 24 h. MIC values were determined as described in 2.4.

[6] = tested on: human red blood cells (hRBCs); assay: Hemolysis assay; assay type: cell-based; conditions: hRBCs, peptide 250 µg/mL, 1 h, 37 °C
Procedure: The hemolytic activity of peptides was determined as the amount of hemoglobin released from lysed human red blood cells (hRBCs) after treatment with peptide. Fresh hRBCs were collected from a healthy volunteer in polycarbonate tubes containing heparin. Then, the collected packed RBCs were washed at least three times (or until the supernatant was clear) with sterile phosphate-buffered saline pH 7.4 (PBS) and centrifuged at 2,000 × g for 5 min. The 2% (v/v) of washed hRBCs in PBS were incubated with serially diluted peptides (0.98 to 250 μg/ml) for 1 h at 37 °C. After centrifugation, the supernatants were monitored for optical density (OD) at 405 nm using a Multiskan FC Microplate Reader[21]. Values for 0% (negative control) and 100% (positive control) lysis were determined by incubating the hRBCs with PBS only (ODBlank) and 0.1% (v/v) Triton X-100 (ODTriton X-100), respectively. The experiments were performed in triplicate. The percent hemolysis was calculated according to the following equation: %Hemolysis=ODSample-ODBlank/ODTriton X-100-ODBlank×100

A. baumannii ATCC 19,606 [7] = assay: Peptide sensitivity to physiological salts (MIC/MBC); assay type: cell-based, Acinetobacter baumannii; conditions: for MBC in the presence of FeCl3 / MIC in the presence of FeCl3: MHB with 4 µM FeCl3; for MBC in the presence of NH4Cl / MIC in the presence of NH4Cl: MHB with 6 µM NH4Cl; for MBC in the presence of ZnCl2 / MIC in the presence of ZnCl2: MHB with 8 µM ZnCl2; for MBC in the presence of MgCl2 / MIC in the presence of MgCl2: MHB with 1 mM MgCl2; for MBC in the presence of KCl / MIC in the presence of KCl: MHB with 4.5 mM KCl; for MBC in the presence of NaCl / MIC in the presence of NaCl: MHB with 150 mM NaCl; for MBC in the presence of CaCl2 / MIC in the presence of CaCl2: MHB with […] CaCl2; for MBC, control / MIC, control: control: absence of serum salts, MHB
Procedure: as §2, §3

Compound | MBC [1] | MIC [1] | MBC [2] | MIC [2] | MBC [3] | MIC [3] | MBC in the presence of human plasma (A. baumannii ATCC 19,606 [5]) | MIC in the presence of human plasma (A. baumannii ATCC 19,606 [5]) | Hemolysis [6] | MBC in the presence of FeCl3 (A. baumannii ATCC 19,606 [7]) | MIC in the presence of FeCl3 (A. baumannii ATCC 19,606 [7]) | MBC in the presence of NH4Cl (A. baumannii ATCC 19,606 [7]) | MIC in the presence of NH4Cl (A. baumannii ATCC 19,606 [7]) | MBC in the presence of ZnCl2 (A. baumannii ATCC 19,606 [7]) | MIC in the presence of ZnCl2 (A. baumannii ATCC 19,606 [7]) | MBC in the presence of MgCl2 (A. baumannii ATCC 19,606 [7]) | MIC in the presence of MgCl2 (A. baumannii ATCC 19,606 [7]) | MBC in the presence of KCl (A. baumannii ATCC 19,606 [7]) | MIC in the presence of KCl (A. baumannii ATCC 19,606 [7]) | MBC in the presence of NaCl (A. baumannii ATCC 19,606 [7]) | other results
CC[C@@H](C)[C@@H](NC(=O)[C@@H](CCCCN)NC(=O)CNC(=O)[C@@H](C)NC(=O)[C@H](NC(=O)[C@@H](CCCCN)NC(=O)[C@@H](CCCCN)NC(=O)[C@H](NC(=O)[C@@H](CCCNC(=N)N)NC(=O)[C@@H](CCCNC(=N)N)NC(=O)[C@@H](Cc1ccccc1)NC(=O)[C@@H](CC(C)C)NC(=O)[C@H](N)CCCNC(=N)N)C(C)C)C(C)C)C(=O)N[C@H](C)C(=O)N[C@H](CCCCN)C(=O)N[C@H](CCCNC(=N)N)C(=O)N[C@@H](C(=O)N[C@H](Cc1c[nH]c2ccccc12)C(=O)N[C@H](CCCCN)C(N)=O)[C@H](C)CC [D-AP19] (H-[dR][dL][dF][dR][dR][dV][dK][dK][dV][dA]G[dK][dI][dA][dK][dR][dI][dW][dK]-NH2) | 7.81(7.81) µg/ml | 7.81(7.81) µg/ml | 7.81(7.81) µg/ml | 7.81(7.81) µg/ml | 7.81(7.81) µg/ml | 7.81(7.81) µg/ml | 31.25(31.25) µg/ml | 31.25(31.25) µg/ml | 3.28% | 15.63(15.63) µg/ml | 15.63(15.63) µg/ml | 7.81(7.81) µg/ml | 7.81(7.81) µg/ml | 15.63(15.63) µg/ml | 15.63(15.63) µg/ml | 7.81(7.81) µg/ml | 7.81(7.81) µg/ml | 15.63(15.63) µg/ml | 15.63(15.63) µg/ml | 62.5(62.5) µg/ml | cell viability ([4]; 1 × and 2 × MIC): 100%; cell viability ([4]; peptide 62.5 µg/mL): more than 70%; MIC in the presence of NaCl (A. baumannii ATCC 19,606 [7]): 62.5(62.5) µg/ml; MBC in the presence of CaCl2 (A. baumannii ATCC 19,606 [7]): 15.63(15.63) µg/ml; MIC in the presence of CaCl2 (A. baumannii ATCC 19,606 [7]): 15.63(15.63) µg/ml; MBC, control (A. baumannii ATCC 19,606 [7]): 7.81(7.81) µg/ml; MIC, control (A. baumannii ATCC 19,606 [7]): 7.81(7.81) µg/ml
RLFRRVKKVAGKIAKRIWK-NH2 [AP19] | 3.91(3.91) µg/ml | 3.91(3.91) µg/ml | 3.91(3.91) µg/ml | 3.91(3.91) µg/ml | 7.81(7.81) µg/ml | 7.81(7.81) µg/ml | 250(250) µg/ml | 250(250) µg/ml | 7.25% | 7.81(7.81) µg/ml | 7.81(7.81) µg/ml | 7.81(7.81) µg/ml | 7.81(7.81) µg/ml | 7.81(7.81) µg/ml | 7.81(7.81) µg/ml | 7.81(7.81) µg/ml | 7.81(7.81) µg/ml | 7.81(7.81) µg/ml | 7.81(7.81) µg/ml | 31.25(31.25) µg/ml | cell viability ([4]; all tested peptide concentrations (0.98 to 250 μg/ml)): 100%; MIC in the presence of NaCl (A. baumannii ATCC 19,606 [7]): 31.25(31.25) µg/ml; MBC in the presence of CaCl2 (A. baumannii ATCC 19,606 [7]): 7.81(7.81) µg/ml; MIC in the presence of CaCl2 (A. baumannii ATCC 19,606 [7]): 7.81(7.81) µg/ml; MBC, control (A. baumannii ATCC 19,606 [7]): 7.81(7.81) µg/ml; MIC, control (A. baumannii ATCC 19,606 [7]): 7.81(7.81) µg/ml
